For 36 compounds, IC50 results are on record in patent US20250051363A1, “Substituted Pyrazolopyridines” (Neuro3 Therapeutics, Inc., priority 2023, published 2025).

For this experiment, the target named is LRRK2 wild-type (Homo sapiens (Human), UniProt Q5S007). The experiment in a line: LanthaScreen LRRK2 Biochemical Activity Assay. The note with it: human recombinant LRRK2 (amino acids 970-2527) wild-type, ATP 57 μM, TR-FRET; read-out: IC50 (nM), inhibition of LRRK2 wild-type kinase activity. On the procedure: The ability of a compound of Formula (I) to inhibit LRRK2 kinase activity is measured using a LanthaScreen™ kinase activity assay. In general, in a LanthaScreen™ kinase activity assay, kinase, fluorescein-labeled substrate, and ATP are allowed to react. Then EDTA (to stop the reaction) and terbium-labeled antibody (to detect phosphorylated product) are added. In a LanthaScreen™ kinase reaction, the antibody associates with the phosphorylated fluorescein labeled substrate resulting in an increased TR-FRET value. The TR-FRET value is a dimensionless number that is calculated as the ratio of the acceptor (fluorescein) signal to the donor (terbium) signal. The amount of antibody that is bound to the tracer is directly proportional to the amount of phosphorylated substrate present, and in this manner, kinase activity can be detected and measured by an increase in the TR-FRET value. Accordingly, in this Example, enzyme reactions are carried out in a kinase reaction buffer in the presence or absence of representative compounds of Formula (I) at various concentrations in 384-well plate at room temperature for 60 minutes. The kinase reaction buffer contains human recombinant LRRK2 protein (amino acids 970-2527, 5 nM), ATP (57 μM for LRRK2 wild-type, 134 μM for G2019S mutant protein), Fluorescein-LRRKtide substrate (0.4 mM), 50 mM Tris pH 7.5, 10 mM MgCl2, 1 mM EGTA, 0.01% Brij™-35, and 2 mM DTT. The final reaction volume for each reaction is 10 μL. The reactions are initated by adding the substrate and stopped by the addition of 10 μL of a TR-FRET dilution buffer supplemented with a kinase quench buffer (10 mM EDTA final) and Tb-anti-pLRRKtide (2 nM final). The plate is further incubated at room temperature for another 60 minutes, and the fluorescent signals are read on an EnVision® multilabel plate reader (PerkinElmer, Waltham, MA) with excitation at 340 nm and emission at 495 and 520 nm. The assay signal is determined as a ratio of FRET-specific signal measured with emission filter at 520 nm to that of the signal measured with Tb-specific emission filter at 495 nm. IC50 values for compound-mediated enzyme inhibition are calculated using appropriate programs in GraphPad Prism software by plotting the logarithm of the compound concentrations versus percent inhibition. All reagents are purchased from Thermo Fisher Scientific.
Chain of LRRK2 wild-type (Q5S007 970-2527): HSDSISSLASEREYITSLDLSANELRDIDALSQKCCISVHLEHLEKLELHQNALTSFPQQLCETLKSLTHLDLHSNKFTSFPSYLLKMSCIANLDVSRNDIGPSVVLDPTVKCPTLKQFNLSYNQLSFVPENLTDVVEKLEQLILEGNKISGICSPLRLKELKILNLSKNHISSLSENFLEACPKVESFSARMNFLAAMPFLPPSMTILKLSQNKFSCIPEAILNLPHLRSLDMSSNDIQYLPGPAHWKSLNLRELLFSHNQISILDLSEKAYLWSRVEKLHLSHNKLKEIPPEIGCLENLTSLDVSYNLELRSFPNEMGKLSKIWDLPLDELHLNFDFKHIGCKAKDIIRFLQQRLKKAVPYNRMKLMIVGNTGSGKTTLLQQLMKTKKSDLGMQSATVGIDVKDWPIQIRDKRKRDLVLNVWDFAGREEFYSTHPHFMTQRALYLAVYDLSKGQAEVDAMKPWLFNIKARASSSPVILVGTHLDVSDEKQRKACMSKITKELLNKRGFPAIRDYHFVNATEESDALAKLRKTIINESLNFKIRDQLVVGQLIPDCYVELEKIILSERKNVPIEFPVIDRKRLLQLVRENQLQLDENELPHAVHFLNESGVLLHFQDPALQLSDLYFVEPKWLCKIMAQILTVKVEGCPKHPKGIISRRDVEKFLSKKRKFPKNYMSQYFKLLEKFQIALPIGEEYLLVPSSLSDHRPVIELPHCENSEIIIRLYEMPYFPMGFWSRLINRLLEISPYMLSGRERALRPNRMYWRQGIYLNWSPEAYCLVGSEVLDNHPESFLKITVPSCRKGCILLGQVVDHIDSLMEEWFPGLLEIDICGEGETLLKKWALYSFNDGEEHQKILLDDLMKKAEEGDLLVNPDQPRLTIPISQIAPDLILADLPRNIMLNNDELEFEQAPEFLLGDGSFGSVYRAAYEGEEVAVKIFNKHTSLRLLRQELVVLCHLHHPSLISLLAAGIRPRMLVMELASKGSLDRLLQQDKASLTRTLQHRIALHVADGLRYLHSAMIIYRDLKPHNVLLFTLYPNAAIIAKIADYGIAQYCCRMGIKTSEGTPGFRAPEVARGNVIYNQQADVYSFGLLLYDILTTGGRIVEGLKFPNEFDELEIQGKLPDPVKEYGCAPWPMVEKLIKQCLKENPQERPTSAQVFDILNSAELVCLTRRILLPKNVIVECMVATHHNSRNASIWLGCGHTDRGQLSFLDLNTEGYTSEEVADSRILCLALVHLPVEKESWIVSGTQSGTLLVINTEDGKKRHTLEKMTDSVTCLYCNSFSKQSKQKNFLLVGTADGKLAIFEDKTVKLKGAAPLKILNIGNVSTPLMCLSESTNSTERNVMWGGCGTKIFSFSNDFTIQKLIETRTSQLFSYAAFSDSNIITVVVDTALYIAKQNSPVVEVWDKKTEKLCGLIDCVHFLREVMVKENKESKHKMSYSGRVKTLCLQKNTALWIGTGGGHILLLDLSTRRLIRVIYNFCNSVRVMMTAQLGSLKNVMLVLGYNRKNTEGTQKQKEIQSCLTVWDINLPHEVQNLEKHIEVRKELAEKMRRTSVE

SMILES strings stand for the structures. Counter-ions that a name gives are not always drawn.

Turning to `CNc1ccn2ncc(-c3cc(Cl)cc(N4C[C@@H](C)N[C@@H](C)C4)n3)c2c1` [Example 54, 3-[4-chloro-6-[(3S,5R)-3,5-dimethylpiperazin-1-yl]-2-pyridyl]-N-methyl-pyrazolo[1,5-a]pyridin-5-amine], the IC50 fell in the range of 11 to 100 nM.

As for `c1cc(-c2cnn3ccccc23)nc(N2CC3CC(C2)N3)c1` [Example 45, 3-[6-(3,6-Diazabicyclo[3.1.1]heptan-3-yl)-2-pyridyl]pyrazolo[1,5-a]pyridine], the IC50 was in the range of 101 to 400 nM.

Take `c1cc(-c2cnn3ccc(C4CC4)cc23)nc(C2CCCNC2)c1` (stereo not drawn) [Example 18, 5-cyclopropyl-3-[6-(3-piperidyl)-2-pyridyl]pyrazolo[1,5-a]pyridine]: the IC50 was in the range of 11 to 100 nM.

For `C[C@@H]1CN(c2cc(Cl)cc(-c3cnn4ccc(C(F)(F)F)cc34)n2)C[C@H](C)N1` [Example 56, 3-[4-chloro-6-[(3S,5R)-3,5-dimethylpiperazin-1-yl]-2-pyridyl]-5-(trifluoromethyl)pyrazolo[1,5-a]pyridine], the IC50 is at most 10 nM.

Turning to `Fc1cc(-c2cnn3ccc(Cl)cc23)nc(C2CCCNC2)c1` (stereo not drawn) [Example 35], the IC50 is 11 to 100 nM.

With `O=C(COc1ccccn1)Nc1ccn2ncc(-c3cccc(C4CCCNC4)n3)c2c1` (stereo not drawn) [Example 73, N-(3-(6-(piperidin-3-yl)pyridin-2-yl)pyrazolo[1,5-a]pyridin-5-yl)-2-(pyridin-2-yloxy)acetamide], the IC50 fell in the range of 11 to 100 nM.

For the compound `Clc1ccn2ncc(-c3cccc(C4CCCNC4)n3)c2c1` (racemic) [Example 5, Rac-5-chloro-3-[6-(3-piperidyl)-2-pyridyl]pyrazolo[1,5-a]pyridine], the IC50 lay within 11 to 100 nM.

As to `C[C@@H]1CN(c2cccc(-c3cnn4ccccc34)n2)C[C@H](C)N1` [Example 49, 3-[6-[(3S,5R)-3,5-dimethylpiperazin-1-yl]-2-pyridyl]pyrazolo[1,5-a]pyridine], the concentration for half-maximal inhibition (IC50) lay in the range of 11 to 100 nM.

For the compound `CS(=O)(=O)NCCNC(=O)c1ccc2c(-c3cccc(C4CCCNC4)n3)cnn2c1` (stereo not drawn) [Example 24, N-[2-(methanesulfonamido)ethyl]-3-[6-(3-piperidyl)-2-pyridyl]pyrazolo[1,5-a]pyridine-6-carboxamide], the IC50 lay in the range of 101 to 400 nM.

On to `CC(C)Oc1ccn2ncc(-c3cc(Cl)cc(C4CCCNC4)n3)c2c1` (stereo not drawn) [Example 65, 3-[4-chloro-6-(3-piperidyl)-2-pyridyl]-5-isopropoxy-pyrazolo[1,5-a]pyridine], for which the IC50 is at most 10 nM.

For the compound `Fc1ccc(-c2cnn3ccccc23)nc1C1CCCNC1` (stereo not drawn) [Example 33, 3-[5-fluoro-6-(3-piperidyl)-2-pyridyl]pyrazolo[1,5-a]pyridine], the IC50 lay within 101 to 400 nM.

For the compound `CC1(C)CN(c2cccc(-c3cnn4ccc(Cl)cc34)n2)CC(C)(C)N1` [Example 66, 5-chloro-3-[6-(3,3,5,5-tetramethylpiperazin-1-yl)-2-pyridyl]pyrazolo[1,5-a]pyridine], the IC50 is at most 10 nM.

As for `Clc1ccn2ncc(-c3cccc([C@@H]4CCCNC4)n3)c2c1` (single isomer, unassigned) [Example 6, (+)-5-chloro-3-(6-(piperidin-3-yl)pyridin-2-yl)pyrazolo[1,5-a]pyridine], the IC50 was in the range of 101 to 400 nM.

With `CS(=O)(=O)N1CCCC(c2cccc(-c3cnn4ccccc34)n2)C1` (stereo not drawn) [Example 26, 3-[6-(1-methylsulfonyl-3-piperidyl)-2-pyridyl]pyrazolo[1,5-a]pyridine], the IC50 lay in the range of 101 to 400 nM.

Take `N#CCC(=O)Nc1ccn2ncc(-c3cccc(C4CCCNC4)n3)c2c1` (stereo not drawn) [Example 77, 2-cyano-N-(3-(6-(piperidin-3-yl)pyridin-2-yl)pyrazolo[1,5-a]pyridin-5-yl)acetamide]: the IC50 was 11 to 100 nM.

Regarding `CS(=O)(=O)NCC(=O)N1CCCC(c2cccc(-c3cnn4ccccc34)n2)C1` (stereo not drawn) [Example 25, N-[2-oxo-2-[3-(6-pyrazolo[1,5-a]pyridin-3-yl-2-pyridyl)-1-piperidyl]ethyl]methanesulfonamide], the IC50 was in the range of 101 to 400 nM.

For `Clc1ccc(-c2cnn3ccccc23)nc1C1CCCNC1` (stereo not drawn) [Example 29, 3-[5-chloro-6-(3-piperidyl)-2-pyridyl]pyrazolo[1,5-a]pyridine], the IC50 fell in the range of 11 to 100 nM.

Take `C[C@@H]1CN(c2ccc(Cl)c(-c3cnn4ccc(Cl)cc34)n2)C[C@H](C)N1` [Example 63, 5-chloro-3-[3-chloro-6-[(3S,5R)-3,5-dimethylpiperazin-1-yl]-2-pyridyl]pyrazolo[1,5-a]pyridine]: the IC50 is at most 10 nM.

For the compound `CS(=O)(=O)NCCC(=O)Nc1ccc2c(-c3cccc(C4CCCNC4)n3)cnn2c1` (stereo not drawn) [Example 23, 3-(methanesulfonamido)-N-[3-[6-(3-piperidyl)-2-pyridyl]pyrazolo[1,5-a]pyridin-6-yl]propanamide], the IC50 is 101 to 400 nM.

Consider `C[C@@H]1CN(c2cccc(-c3cnn4ccccc34)n2)CCN1` [Example 69, (R)-3-(6-(3-methylpiperazin-1-yl)pyridin-2-yl)pyrazolo[1,5-a]pyridine formate], for which the IC50 is 11 to 100 nM.

With `c1cc(-c2cnn3ccccc23)nc(N2CCNCC2)c1` [Example 37, 3-(6-piperazin-1-yl-2-pyridyl)pyrazolo[1,5-a]pyridine], the IC50 was in the range of 101 to 400 nM.

On to `Clc1cc(-c2cnn3ccccc23)nc(C2CCCNC2)c1` (stereo not drawn) [Example 28, 3-(4-chloro-6-(piperidin-3-yl)pyridin-2-yl)pyrazolo[1,5-a]pyridine], for which the IC50 lay in the range of 11 to 100 nM.

For `N#CCCCC(=O)Nc1ccn2ncc(-c3cccc(C4CCCNC4)n3)c2c1` (stereo not drawn) [Example 75, 4-cyano-N-(3-(6-(piperidin-3-yl)pyridin-2-yl)pyrazolo[1,5-a]pyridin-5-yl)butanamide], the IC50 lay within 11 to 100 nM.

As to `c1cc(-c2cnn3ccccc23)nc(C2CCNC2)c1` (stereo not drawn) [Example 3, 3-(6-pyrrolidin-3-yl-2-pyridyl)pyrazolo[1,5-a]pyridine], the IC50 is 101 to 400 nM.

In the case of `CNc1ccn2ncc(-c3cccc(C4CCCNC4)n3)c2c1` (stereo not drawn) [Example 20, N-methyl-3-[6-(3-piperidyl)-2-pyridyl]pyrazolo[1,5-a]pyridin-5-amine], the IC50 was at most 10 nM.

`Clc1cc(-c2cnn3ccc(Cl)cc23)nc(C2CCCNC2)c1` (stereo not drawn) [Example 34, 5-chloro-3-[4-chloro-6-(3-piperidyl)-2-pyridyl]pyrazolo[1,5-a]pyridine]: the IC50 was in the range of 11 to 100 nM.

In the case of `c1cc(-c2cnn3ccc(OCC4CC4)cc23)nc(C2CCCNC2)c1` (stereo not drawn) [Example 14, 5-(cyclopropylmethoxy)-3-[6-(3-piperidyl)-2-pyridyl]pyrazolo[1,5-a]pyridine], the IC50 lay in the range of 101 to 400 nM.

As to `O=C(Cc1cccnc1)Nc1ccn2ncc(-c3cccc(C4CCCNC4)n3)c2c1` (stereo not drawn) [Example 78, N-(3-(6-(piperidin-3-yl)pyridin-2-yl)pyrazolo[1,5-a]pyridin-5-yl)-2-(pyridin-3-yl)acetamide], the IC50 lay within 11 to 100 nM.

On to `C[C@@H]1CN(c2cc(Cl)cc(-c3cnn4ccc(Cl)cc34)n2)C[C@H](C)N1` [Example 59, 5-chloro-3-[4-chloro-6-[(3S,5R)-3,5-dimethylpiperazin-1-yl]-2-pyridyl]pyrazolo[1,5-a]pyridine], for which the IC50 is at most 10 nM.

As for `Oc1ccn2ncc(-c3cccc(C4CCCNC4)n3)c2c1` (stereo not drawn) [Example 12, 3-(6-(piperidin-3-yl)pyridin-2-yl)pyrazolo[1,5-a]pyridin-5-ol], the IC50 is 101 to 400 nM.

For `Clc1ccn2ncc(-c3cccc(N4CCNCC4)n3)c2c1` [Example 42, 5-chloro-3-(6-piperazin-1-yl-2-pyridyl)pyrazolo[1,5-a]pyridine], the IC50 fell in the range of 11 to 100 nM.

`Fc1cc(-c2cnn3ccc(Cl)cc23)nc(N2CCNCC2)c1` [Example 44, 5-chloro-3-(4-fluoro-6-piperazin-1-yl-2-pyridyl)pyrazolo[1,5-a]pyridine]: the IC50 lay in the range of 11 to 100 nM.

For `CCNc1ccn2ncc(-c3cccc(C4CCCNC4)n3)c2c1` (stereo not drawn) [Example 21, N-ethyl-3-[6-(3-piperidyl)-2-pyridyl]pyrazolo[1,5-a]pyridin-5-amine], the IC50 was in the range of 11 to 100 nM.

On to `CS(=O)(=O)CC(=O)Nc1ccn2ncc(-c3cccc(C4CCCNC4)n3)c2c1` (stereo not drawn) [Example 67, 2-(methylsulfonyl)-N-(3-(6-(piperidin-3-yl)pyridin-2-yl)pyrazolo[1,5-a]pyridin-5-yl)acetamide], for which the IC50 is 11 to 100 nM.

With `c1cc(-c2cnn3ccccc23)nc(C2CCNCC2)c1` [Example 1, 3-[6-(4-piperidyl)-2-pyridyl]pyrazolo[1,5-a]pyridine], the IC50 lay in the range of 101 to 400 nM.

As to `c1cc(-c2cnn3ccccc23)nc(N2CC3CCC2CN3)c1` (stereo not drawn) [Example 48, 3-[6-(2,5-diazabicyclo[2.2.2]octan-2-yl)-2-pyridyl]pyrazolo[1,5-a]pyridine], the IC50 was 101 to 400 nM.

One may read the IC50 as the concentration needed to halve the response being measured.
